# Test results: US7560454B2, “Condensed azepines as vasopressin agonists” (Vantia Limited, priority 2000, dated 2009)
# Tested on: Brattleboro rat
# Experiment: inhibition of urine output in Brattleboro rats
# Assay type: in vivo
# Details: 1 mg/kg p.o. in methylcellulose, vs control animals
# Procedure: The Brattleboro rat is a recognised model for vasopressin deficiency (for a review see F D Grant, “Genetic models of vasopressin deficiency”, Exp. Physiol. 85, 203S-209S, 2000). […] Compounds of the invention were administered to Brattleboro rats (0.1-10 mg/kg p.o. in methylcellulose. Urine was collected hourly and volumes were compared with control animals. Animals had free access to food and water throughout the experiment. Representative results are given in the Table. Results for Desmopressin are given for comparison.
smiles,measurement,value
"Cc1cc(C(=O)N2CCCCc3ccccc32)ccc1CNC(=O)N1CCC[C@H]1C(=O)N(C)C [Example 1, 1-(2-Methyl-4-(2,3,4,5-tetrahydro-1-benzazepin-1-ylcarbonyl)benzylcarbamoyl)-L-proline-N,N-dimethylamide]",% inhibition of urine output (at 1 hour),82%
